Test results: US20140323573A1, “METABOLIZABLE SALTS AND USE THEREOF IN DIAGNOSTICS AND THERAPY” (priority 2011, published 2014)
Structures can show the parent of a compound that is named as a salt. Where two headings read alike, the source gives them in different places.

Columns and labels:
[1] = Osmotic coefficient and osmolality of solutions; assay type: physicochemical
Text: a) Osmotic Coefficients of Compounds According to the Invention and not According to the Invention

[2] = cited from earlier work; for pK-values (first value) / pK-values (second value) / pK-values (third value): Table I, 37° C.
[3] = Buffer properties / acid-base data of 0.1 molar salt solutions (37° C.); conditions: 0.1 molar solution; for NaOH ΔpH 7.2-7.6: NaOH necessary for ΔpH of 7.2-7.6; for Titr. on 7.4: NaOH necessary to set pH 7.4; for β (at 7.4) buffer capacity: calculated from NaOH for ΔpH 7.2-7.6
Text: NaOH mmol/l for ΔpH of 7.2-7.6: how much NaOH in mmol/l is necessary for that ΔpH.
2. β (mmol/l/pH): the buffer capacity calculated therefrom at pH 7.40.
Titr on 7.4 (mmol/l): how much NaOH is necessary to set a pH-value of 7.4.
If a physiological pH-value of 7.4 is to be set in a 0.1 molar solution then the corresponding additives are specified in the column Titration pH=7.4. It is therefore specified how much NaOH (mmol/l) is to be added to set that pH-value.

[4] = Feed of bicarbonate: arginine / arginine acetate solution equilibrated with CO2; assay type: physicochemical; conditions: ionic strength 160 mmol/l and 37° C.
Procedure: If a solution with 48 mmol/l arginine is mixed with 24 mmol/l acetic acid that gives a mixture respectively comprising 24 mmol/l arginine and arginine acetate with a pH-value of about 8.6. That pH-value corresponds to the effective pK value of arginine (ionic strength 160 mmol/l and 37° C.). If that solution is necessarily equilibrated after infusion in the patient to a pCO2 of about 40 mmHg a maximum of 24 mmol/l arginine HCO3 will occur. Thus the physiological values of about 24 mmol/l HCO3 and a pH-value of about 7.4 will occur (for comparison arginine equilibration with pure CO2 in Table 1).

[5] = 0.1 molar solution, (literature); cited from earlier work

N=C(N)NCCC[C@H](N)C(=O)O.O=C(O)O [Arg HCO3]
Osmot. valence [1]: 2
Osmot. coefficient ([1]; 0.1 molar solution): 0.833
Osmot. coefficient ([1]; 0.2 m, 100% CO2 at 37° C.): 0.2 m 0.833 100% CO2 at 37 °C
Osmot. coefficient ([1]; 0.3 m, 100% CO2 at 37° C.): 0.3 m 0.763 100% CO2 at 37 °C

Cl.N=C(N)NCCC[C@H](N)C(=O)O [Arg HCl, arginine hydrochloride]
Osmot. valence [1]: 2
Osmot. coefficient ([1]; 0.1 molar solution): 0.895

CC(=O)O.N=C(N)NCCC[C@H](N)C(=O)O [Arg acetate, arginine acetate]
pK [2]: 4.6
pH [3]: 5.99
NaOH ΔpH 7.2-7.6 [3]: 2.8 mmol/L
Titr. on 7.4 [3]: 7.3 mmol/L
β (at 7.4) buffer capacity [3]: 7.0 mmol/l/pH

N=C(N)NCCC[C@H](N)C(=O)O [Arginine, arginine]
Osmot. valence [1]: 1
Osmot. coefficient ([1]; 0.1 molar solution): 0.980
osmolality ([1]; 0.1 molar solution): 98 mosmol/kg H2O
effective pK value [4]: about 8.6
pK-values (first value) [2]: 2.0
pK-values (second value) [2]: 9.0
pK-values (third value) [2]: 12.1
pH [3]: 10.26

O=C(O)O [HCO3^−]
pK [2]: 6.1

O=S(=O)(O)CCN1CCN(CCO)CC1 [Hepes]
pK [2]: 7.35

O=C(O)CC(O)(CC(=O)O)C(=O)O [K3 citrate]
Osmot. valence [1]: 4
Osmot. coefficient ([1]; 0.1 molar solution): 0.681

O=C(O)CC(O)(CC(=O)O)C(=O)O [Lys3 citrate, tri-lysine citrate]
Osmot. coefficient ([1]; 0.1 molar solution): 0.715
pH [3]: 6.88
NaOH ΔpH 7.2-7.6 [3]: 5.9 mmol/L
Titr. on 7.4 [3]: 5.8 mmol/L
β (at 7.4) buffer capacity [3]: 14.8 mmol/l/pH

CC(=O)O.NCCCC[C@H](N)C(=O)O [Lysine Acetate, lysine acetate]
pH [3]: 5.99
NaOH ΔpH 7.2-7.6 [3]: 2.5 mmol/L
Titr. on 7.4 [3]: 6.8 mmol/L
β (at 7.4) buffer capacity [3]: 6.3 mmol/l/pH

NCCCC[C@H](N)C(=O)O [Lysine, lysine]
Osmot. valence [1]: 1
Osmot. coefficient ([1]; 0.1 molar solution): 1.000
pK-values (first value) [2]: 2.2
pK-values (second value) [2]: 8.9
pK-values (third value) [2]: 10.3
pH [3]: 9.55

N [NH4^+]
pK [2]: 9.0

O=C(O)CC(O)(CC(=O)O)C(=O)O [Na3 citrate]
Osmot. valence [1]: 4
Osmot. coefficient ([1]; 0.1 molar solution): 0.681

[Cl-].[Na+] [NaCl]
Osmot. valence [1]: 2
Osmot. coefficient [5]: 0.926

O=C([O-])O.[Na+] [NaHCO3]
Osmot. valence [1]: 2
Osmot. coefficient ([1]; 0.1 molar solution, (assumed)): 0.926

NC(CO)(CO)CO [Tris]
pK [2]: 8.2

CC(=O)O [acetic acid]
pK-values (first value) [2]: 4.6

O=C(O)O [carbonic acid]
pK-values (first value) [2]: 6.1

O=C(O)CC(O)(CC(=O)O)C(=O)O [citric acid]
Osmot. valence [1]: 3
Osmot. coefficient ([1]; 0.1 molar solution): 0.555
pK-values (first value) [2]: 3.0
pK-values (second value) [2]: 4.4
pK-values (third value) [2]: 5.8

O=C(O)CC(O)C(=O)O (stereo not shown) [malic acid]
pK-values (first value) [2]: 3.5
pK-values (second value) [2]: 4.7
